Experimental data reported in patent publication US10538491B2, “4,5-substituted picolinamide and picolinonitrile metabotropic glutamate receptor 2 negative allosteric modulators” (Vanderbilt University, priority 2015, dated 2020).
Like-named read-outs stand apart in the source and are kept apart here.

Legend:
[1] = tested on: group II mGlu receptors (mGlu2 and mGlu3); settings: cited from earlier work
[2] = target: rat mGlu2 (Rattus norvegicus (Rat), UniProt P31421); assay: mGlu2 Ca2+ flux assay; format: cell-based; settings: for IC50: Gα15 HEK293 cells stably expressing rat mGlu2, glutamate EC80, >10,000 = no plateau, >30,000 = no measurable activity; for rat mGlu2 Glu max / remaining activity at 30 µM: amplitude of response in the presence of 30 μM test compound as percentage of maximal response to glutamate; for remaining activity at 30 µM: read-out: rat mGlu2 Glu max
rat mGlu2, sequence (P31421 19-872): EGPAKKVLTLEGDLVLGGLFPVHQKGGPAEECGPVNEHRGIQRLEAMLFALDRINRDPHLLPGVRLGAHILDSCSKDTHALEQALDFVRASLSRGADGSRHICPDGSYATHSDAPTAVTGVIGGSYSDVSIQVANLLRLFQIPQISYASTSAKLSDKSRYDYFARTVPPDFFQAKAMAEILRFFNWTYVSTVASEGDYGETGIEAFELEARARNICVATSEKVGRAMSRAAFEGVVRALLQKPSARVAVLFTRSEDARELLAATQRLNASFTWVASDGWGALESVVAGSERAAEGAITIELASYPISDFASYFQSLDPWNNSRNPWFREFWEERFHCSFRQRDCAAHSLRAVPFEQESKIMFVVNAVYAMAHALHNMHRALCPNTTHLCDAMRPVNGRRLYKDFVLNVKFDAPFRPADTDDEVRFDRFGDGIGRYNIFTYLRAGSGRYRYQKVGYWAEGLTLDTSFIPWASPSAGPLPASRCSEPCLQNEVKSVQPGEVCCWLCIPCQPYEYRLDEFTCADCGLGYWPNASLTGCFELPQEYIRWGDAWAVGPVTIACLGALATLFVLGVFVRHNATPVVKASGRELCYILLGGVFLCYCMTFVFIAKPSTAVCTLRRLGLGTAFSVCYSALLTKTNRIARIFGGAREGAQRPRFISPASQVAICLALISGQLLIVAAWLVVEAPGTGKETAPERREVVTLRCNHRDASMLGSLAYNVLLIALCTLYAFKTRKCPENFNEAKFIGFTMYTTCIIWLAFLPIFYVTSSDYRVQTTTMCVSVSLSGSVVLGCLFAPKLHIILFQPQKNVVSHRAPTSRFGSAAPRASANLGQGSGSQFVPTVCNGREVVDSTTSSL
Procedure, shortened: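 Gα15 HEK293 cells stably expressing rat mGlu2, Fluo-4 loaded; compound added, then glutamate at EC20 after 2.3 min and EC80 afterward, calcium flux read as F/F0. Peak amplitude around EC80 addition normalized to glutamate max; IC50 by unconstrained 4-parameter fit, top concentration 30 μM.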

[3] = tested on: mouse; settings: mouse TST, normal animals; cited from earlier work
[4] = tested on: rat; settings: rat FST, normal animals; cited from earlier work
[5] = tested on: Helpless (H) mice; settings: cited from earlier work; for activity in the tail suspension test: Helpless (H) mice
[6] = tested on: Aβ-induced neurodegeneration; settings: cited from earlier work
[7] = tested on: C57Bl6/J mice; settings: FST; cited from earlier work
[8] = tested on: mice; settings: cited from earlier work
[9] = tested on: central mGlu2 and mGlu3 receptors; settings: in vivo; cited from earlier work
[10] = treatment for 7 days; cited from earlier work
[11] = tested on: social isolation reared mice; settings: cited from earlier work
[12] = CFS model; cited from earlier work
[13] = tested on: olfactory bulbectomized rats; settings: repeated administration for 14 days; cited from earlier work

| SMILES | IC50 [2] [nM] | remaining activity at 30 µM [2] [%] | also measured |
| --- | --- | --- | --- |
| CCCCCCCOC(=O)[C@@]1(F)[C@@H]2C[C@@H](OCc3ccc(Cl)c(Cl)c3)[C@@](N)(C(=O)O)[C@@H]21 [BCI-838] | – | – | duration of inhibition of group II mGlu receptors by brain concentration of active metabolite BCI-632 ([1]; once-daily dosing of oral prodrug): 22 h; learning and memory impairment ([1]; three months of treatment, Dutch APP transgenic mice): reversed Dutch APP transgene-associated learning and memory impairment; levels of monomeric and oAβ peptides in hippocampus and cortex ([1]; three months of treatment, two AD mouse models): decreased the levels of monomeric and oAβ peptides; anxiolytic effects ([1]; three months of treatment): anxiolytic effects; hippocampal progenitor cell proliferation ([1]; wild-type and Alzheimer's diseased mice, 3 months): stimulated hippocampal progenitor cell proliferation |
| NC(=O)c1cc(-c2ccc(F)cc2)c(N2CCC(Oc3ccnc(C(F)(F)F)c3)CC2)cn1 [Compound 138, 4-(4-fluorophenyl)-5-(4-((2-(trifluoromethyl)pyridin-4-yl)oxy)piperidin-1-yl)picolinamide] | > 10000 | – | – |
| Cc1ccc(OC2CCN(c3cnc(C(N)=O)cc3-c3ccc(F)cc3)CC2)cn1 [Compound 139, 4-(4-fluorophenyl)-5-(4-((6-methylpyridin-3-yl)oxy)piperidin-l-yl)picolinamide] | 9590 | – | rat mGlu2 Glu max [2]: 7.04% |
| NC(=O)c1cc(-c2ccc(F)cc2)c(N2CCC(Oc3cccnc3)CC2)cn1 [Compound 140, 4-(4-fluorophenyl)-5-(4-(pyridin-3-yloxy)piperidin-1-yl)picolinamide] | > 10000 | 29.8 | – |
| NC(=O)c1cc(-c2ccc(F)cc2)c(N2CC(Oc3ccc(C(F)(F)F)nc3)C2)cn1 [Compound 141, 4-(4-fluorophenyl)-5-(3-((6-(trifluoromethyl)pyridin-3-yl)oxy)azetidin-1-yl)picolinamide] | > 10000 | 53.9 | – |
| Cc1ccc(OC2CN(c3cnc(C(N)=O)cc3-c3ccc(F)cc3)C2)cn1 [Compound 142, 4-(4-fluorophenyl)-5-(3-((6-methylpyridin-3-yl)oxy)azetidin-1-yl)picolinamide] | 1280 | 2.35 | – |
| NC(=O)c1cc(-c2ccc(F)cc2)c(N2CC(Oc3cccnc3)C2)cn1 [Compound 143, 4-(4-fluorophenyl)-5-(3-(pyridin-3-yloxy)azetidin-1-yl)picolinamide] | 2030 | 7.01 | – |
| NC(=O)c1cc(-c2ccc(F)cc2)c(N2CCC(Oc3ccnc(C(F)(F)F)c3)C2)cn1 (stereo not shown) [Compound 144, 4-(4-fluorophenyl)-5-(3-((2-(trifluoromethyl)pyridin-4-yl)oxy)pyrrolidin-1-yl)picolinamide] | 7450 | 1.28 | – |
| N#Cc1cccc(COc2cnc(C(N)=O)cc2-c2ccc(F)cc2)c1 [Compound 145, 5-((3-Cyanobenzyl)oxy)-4-(4-fluorophenyl)picolinamide] | 429 | 1.5 | – |
| N#Cc1cc(F)cc(COc2cnc(C(N)=O)cc2-c2ccc(F)cc2)c1 [Compound 146, 5-((3-cyano-5-fluorobenzyl)oxy)-4-(4-fluorophenyl)picolinamide] | 944 | 0.48 | – |
| N#Cc1ccc(F)c(COc2cnc(C(N)=O)cc2-c2ccc(F)cc2)c1 [Compound 147, 5-((5-cyano-2-fluorobenzyl)oxy)-4-(4-fluorophenyl)picolinamide] | 313 | 0.73 | – |
| N#Cc1cc(COc2cnc(C(N)=O)cc2-c2ccc(F)cc2)ccc1F [Compound 148, 5-((3-cyano-4-fluorobenzyl)oxy)-4-(4-fluorophenyl)picolinamide] | 1680 | 0.43 | – |
| N#Cc1cccc(COc2cnc(C(N)=O)cc2-c2ccc(F)cc2)c1F [Compound 149, 5-((3-cyano-2-fluorobenzyl)oxy)-4-(4-fluorophenyl)picolinamide] | 254 | 1.66 | – |
| N#Cc1ccccc1COc1cnc(C(N)=O)cc1-c1ccc(F)cc1 [Compound 150, 5-((2-cyanobenzyl)oxy)-4-(4-fluorophenyl)picolinamide] | 98 | 1.14 | – |
| N#Cc1cncc(COc2cnc(C(N)=O)cc2-c2ccc(F)cc2)c1 [Compound 151] | 683 | – | rat mGlu2 Glu max [2]: 2.05% |
| N#Cc1cccc(OCCOc2cnc(C(N)=O)cc2-c2ccc(F)cc2)c1 [Compound 152, 5-(2-(3-cyanophenoxy)ethoxy)-4-(4-fluorophenyl)picolinamide] | 1220 | 1.44 | – |
| N#Cc1cc(F)cc(OCCOc2cnc(C(N)=O)cc2-c2ccc(F)cc2)c1 [Compound 153, 5-(2-(3-cyano-5-fluorophenoxy)ethoxy)-4-(4-fluorophenyl)picolinamide] | 1370 | 1.58 | – |
| N#Cc1cc(OCCOc2cnc(C(N)=O)cc2-c2ccc(F)cc2)ccc1F [Compound 154, 5-(2-(3-cyano-4-fluorophenoxy)ethoxy)-4-(4-fluorophenyl)picolinamide] | 1390 | 4.19 | – |
| N#Cc1cccc(OCCOc2cnc(C(N)=O)cc2-c2ccc(F)cc2)c1F [Compound 155, 5-(2-(3-cyano-2-fluorophenoxy)ethoxy)-4-(4-fluorophenyl)picolinamide] | 528 | 1.07 | – |
| N#Cc1ccc(F)c(OCCOc2cnc(C(N)=O)cc2-c2ccc(F)cc2)c1 [Compound 156, 5-(2-(5-cyano-2-fluorophenoxy)ethoxy)-4-(4-fluorophenyl)picolinamide] | 4230 | -21.7 | – |
| N#Cc1cncc(OCCOc2cnc(C(N)=O)cc2-c2ccc(F)cc2)c1 [Compound 157, 5-(2-((5-cyanopyridin-3-yl)oxy)ethoxy)-4-(4-fluorophenyl)picolinamide] | 691 | 4.33 | – |
| N[C@](CC1c2ccccc2Oc2ccccc21)(C(=O)O)[C@H]1C[C@@H]1C(=O)O [LY341495] | – | – | antidepressant-like effects [3]: Antidepressant-like effects; antidepressant-like effects [4]: Antidepressant-like effects; activity in the tail suspension test [5]: active; antidepressant effect in helpless mice ([5]; acute administration): potent antidepressant effect; effect on LY566332-amplified Aβ-induced neurodegeneration [6]: prevented; immobility time [7]: dose-dependently reduced immobility time; marble-burying behavior [8]: significantly reduce marble-burying behavior; hypolocomotor effect of mGlu2/3 agonist (LY379268) [9]: achieved the same result |
| CCS(=O)(=O)N(Cc1cccnc1)c1cccc(-c2ccc(C#N)cc2)c1 [LY566332] | – | – | Aβ-induced neurodegeneration [6]: amplified Aβ-induced neurodegeneration |
| N[C@]1(C(=O)O)[C@H]2[C@@H](C[C@H]1OCc1ccc(Cl)c(Cl)c1)[C@]2(F)C(=O)O [MGS0039] | – | – | antidepressant-like effects [3]: Antidepressant-like effects; antidepressant-like effects [4]: Antidepressant-like effects; number of escape failures [10]: significantly reduced the number of escape failures; marble-burying behavior [8]: reduced marble-burying behavior; spontaneous locomotor activity [8]: no significant change; immobility in the FST [11]: reversed the increased immobility; freezing behavior [12]: significantly decreased freezing behavior; hyperactivity in the open field test [13]: attenuated the hyperactivity; learning deficit in the passive avoidance test [13]: attenuated the learning deficit |
| Cc1cc(-c2cccc(C3=Nc4cc(C)c(C(F)(F)F)cc4NC(=O)C3)c2)cc(C)n1 [RO4491533] | – | – | activity in the tail suspension test [5]: active; immobility time [7]: dose-dependently reduced immobility time; hypolocomotor effect of mGlu2/3 agonist (LY379268) [9]: reversed the hypolocomotor effect |
| CN1C(=O)CN=C(c2ccccc2)c2cc(Cl)ccc21 [diazepam] | – | – | freezing behavior [12]: significantly decreased freezing behavior |
| CNCCC(Oc1ccc(C(F)(F)F)cc1)c1ccccc1 (stereo not shown) [fluoxetine] | – | – | antidepressant effect in helpless mice ([5]; chronic (21 days) treatment): full antidepressant effect |
